Source: ChEMBL document CHEMBL1201862, “PubChem BioAssay data set” (2004)
The source made the active and inactive calls.

What was measured:
[1] = molecular target: Glucose-6-phosphate 1-dehydrogenase (Homo sapiens, UniProt P11413); assay: human G6PD enzyme inhibitors, dose response, selectivity assay for P. falciparum G6PD inhibitor project, biochemical, fluorescence (AID 504792); assay type: functional
[2] = molecular target: Genome polyprotein (dengue virus type 2, UniProt P29990); assay: Dengue-2 NS5 methyltransferase inhibitors, primary screen, biochemical, confirmation dose response (AID 588689); assay type: functional
[3] = molecular target: T1, Histone-lysine N-methyltransferase NSD2 (Homo sapiens, UniProt O96028); assay type: biochemical
T1 sequence (O96028 whole entry): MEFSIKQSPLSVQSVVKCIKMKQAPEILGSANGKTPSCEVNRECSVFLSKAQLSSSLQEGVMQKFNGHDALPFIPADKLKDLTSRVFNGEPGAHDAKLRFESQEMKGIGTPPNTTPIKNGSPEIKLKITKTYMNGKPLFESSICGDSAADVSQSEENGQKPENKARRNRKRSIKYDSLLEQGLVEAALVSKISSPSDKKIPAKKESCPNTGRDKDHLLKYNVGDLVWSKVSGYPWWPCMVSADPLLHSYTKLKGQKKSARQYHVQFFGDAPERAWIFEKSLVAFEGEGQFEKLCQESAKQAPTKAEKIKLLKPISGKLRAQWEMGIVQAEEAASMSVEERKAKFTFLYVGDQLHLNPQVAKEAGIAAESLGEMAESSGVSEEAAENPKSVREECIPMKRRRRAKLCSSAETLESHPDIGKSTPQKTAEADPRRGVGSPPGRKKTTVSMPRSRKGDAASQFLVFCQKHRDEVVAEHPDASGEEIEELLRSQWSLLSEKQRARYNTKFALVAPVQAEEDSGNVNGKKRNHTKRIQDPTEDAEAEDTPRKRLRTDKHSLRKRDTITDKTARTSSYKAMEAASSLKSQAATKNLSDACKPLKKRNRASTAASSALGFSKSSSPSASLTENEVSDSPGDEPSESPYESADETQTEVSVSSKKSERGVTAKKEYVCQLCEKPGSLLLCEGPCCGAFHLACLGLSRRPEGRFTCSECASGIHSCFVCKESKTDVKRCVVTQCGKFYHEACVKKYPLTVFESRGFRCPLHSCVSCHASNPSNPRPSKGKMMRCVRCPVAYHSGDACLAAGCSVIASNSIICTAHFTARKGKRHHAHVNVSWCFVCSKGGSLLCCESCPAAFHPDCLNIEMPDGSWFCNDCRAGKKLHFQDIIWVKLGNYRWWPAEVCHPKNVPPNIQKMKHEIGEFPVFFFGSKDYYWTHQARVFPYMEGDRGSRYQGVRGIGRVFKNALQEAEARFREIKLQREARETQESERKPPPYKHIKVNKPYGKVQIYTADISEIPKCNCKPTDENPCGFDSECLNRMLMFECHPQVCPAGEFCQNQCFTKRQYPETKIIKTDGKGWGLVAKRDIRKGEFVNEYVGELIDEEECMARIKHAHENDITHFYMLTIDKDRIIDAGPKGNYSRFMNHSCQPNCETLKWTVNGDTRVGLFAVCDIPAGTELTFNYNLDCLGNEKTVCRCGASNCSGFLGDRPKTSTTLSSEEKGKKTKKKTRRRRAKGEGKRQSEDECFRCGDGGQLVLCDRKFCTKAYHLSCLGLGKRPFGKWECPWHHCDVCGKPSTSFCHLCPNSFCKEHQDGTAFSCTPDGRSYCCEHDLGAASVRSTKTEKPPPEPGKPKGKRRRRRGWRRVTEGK

[4] = molecular target: Cytochrome P450 2C9 (Homo sapiens, UniProt P11712)
[5] = molecular target: Induced myeloid leukemia cell differentiation protein Mcl-1 (Homo sapiens, UniProt Q07820); assay type: functional
[6] = molecular target: Cytochrome P450 2D6 (Homo sapiens, UniProt P10635);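 further: CYP2D6 member of a cytochrome P450 panel assay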
[7] = molecular target: T2, Cytochrome P450 1A2 (Homo sapiens, UniProt P05177);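 further: PubChem cytochrome P450 panel assay, CYP1A2 panel member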
T2 sequence (P05177 whole entry): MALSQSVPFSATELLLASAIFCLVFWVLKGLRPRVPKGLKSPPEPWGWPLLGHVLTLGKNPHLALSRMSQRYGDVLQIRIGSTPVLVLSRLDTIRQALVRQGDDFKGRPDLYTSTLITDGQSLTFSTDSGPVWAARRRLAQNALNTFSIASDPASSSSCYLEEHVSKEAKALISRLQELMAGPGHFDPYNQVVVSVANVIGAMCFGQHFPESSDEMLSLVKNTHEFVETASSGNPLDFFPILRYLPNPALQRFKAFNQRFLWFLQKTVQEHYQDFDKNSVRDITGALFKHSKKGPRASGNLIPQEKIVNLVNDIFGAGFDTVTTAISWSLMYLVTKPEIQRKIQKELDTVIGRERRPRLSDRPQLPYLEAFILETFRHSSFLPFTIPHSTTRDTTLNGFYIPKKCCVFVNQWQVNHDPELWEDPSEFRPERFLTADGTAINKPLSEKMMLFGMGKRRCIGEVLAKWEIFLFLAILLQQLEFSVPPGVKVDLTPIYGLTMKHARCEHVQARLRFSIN

[8] = molecular target: T3, Carboxy-terminal domain RNA polymerase II polypeptide A small phosphatase 1 (Homo sapiens, UniProt Q9GZU7); assay: inhibitors of CTDSP1, concentration-response testing, biochemical assay, absorbance-based, actives from ultra-high-throughput screening (AID 540297); assay type: functional
T3 sequence (Q9GZU7 whole entry): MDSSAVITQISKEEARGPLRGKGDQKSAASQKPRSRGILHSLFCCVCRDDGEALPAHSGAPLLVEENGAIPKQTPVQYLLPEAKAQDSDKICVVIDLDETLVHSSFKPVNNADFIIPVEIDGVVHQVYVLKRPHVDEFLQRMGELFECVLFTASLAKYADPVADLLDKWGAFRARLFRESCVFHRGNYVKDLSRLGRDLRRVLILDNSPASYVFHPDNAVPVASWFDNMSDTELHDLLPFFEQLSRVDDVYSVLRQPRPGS

[9] = molecular target: DNA (cytosine-5)-methyltransferase 1 (Homo sapiens, UniProt P26358); assay: DNMT1 methyltransferase inhibitors, confirmation, biochemical, fluorescent molecular beacon (AID 602386); assay type: functional
[10] = inhibitors of firefly luciferase expression or activity, dose response, H4 neuroglioma cells, luminescence (AID 1990); assay type: functional, cell-based
[11] = Luminescence Cell-Based Dose Response HTS to Identify Inhibitors of 5'UTR Stem-Loop Driven Prion Protein mRNA Translation in H4 Neuroglioblastoma Cells. [Related pubchem assays: 1827 (Project Summary), 1813 (Primary HTS)]; assay type: functional
[12] = inhibitors of SNCA 5'UTR-driven reporter translation, confirmation, H4 neuroglioma cells, luminescence (AID 1988); assay type: functional, cell-based
[13] = tested on: BJ; assay: cytotoxicity toward BJ-TERT fibroblasts, dose response, cell-based, RAS-independent, luminescence (AID 1933); assay type: functional, Homo sapiens; settings: Homo sapiens, BJ
[14] = tested on: BJ; assay: cells; assay type: functional, cell-based, Homo sapiens; settings: Homo sapiens, BJ
[15] = inhibitors of intracellular T. cruzi replication, confirmation, NIH3T3 host cells, beta-gal luminescence (AID 2044); assay type: functional, cell-based;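 further: intracellular parasites grown in NIH/3T3 mouse fibroblasts as host cells; luminescent beta-galactosidase reporter signal from transgenic T. cruzi replicating inside host cells; inhibitors lower the luminescence signal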
[16] = cytotoxicity toward NIH3T3 fibroblasts, dose response, counter-screen, cell-based, ATP luminescence, mouse fibroblasts (AID 2010); assay type: functional;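 further: cells exposed to compound for about 90 hours before reading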
[17] = tested on: BJ; assay: cytotoxicity toward BJ-TERT-LT-ST fibroblasts, dose response, cell-based, RAS-independent, luminescence (AID 1935); assay type: functional, Homo sapiens; settings: Homo sapiens, BJ;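 further: BJ fibroblasts immortalized with TERT plus LT and ST oncogenes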
[18] = cytotoxicity toward DRD oncogenic fibroblasts, dose response, cell-based, non-viral oncogenic, luminescence (AID 1934); assay type: functional; settings: Homo sapiens
[19] = molecular target: T4, Heat shock factor protein 1 (Mus musculus, UniProt P38532); assay: HSF1 potentiators in luciferase reporter cells, confirmation, cell-based, NIH3T3, luminescence, dose retest (AID 435004); assay type: functional;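 further: stress induced by proteasome inhibitor MG132 added 30 min after compound; luciferase reporter driven by HSF1 response element in NIH3T3 cells; actives raise luminescence as potentiators of the MG132 stress response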
T4 sequence (P38532 whole entry): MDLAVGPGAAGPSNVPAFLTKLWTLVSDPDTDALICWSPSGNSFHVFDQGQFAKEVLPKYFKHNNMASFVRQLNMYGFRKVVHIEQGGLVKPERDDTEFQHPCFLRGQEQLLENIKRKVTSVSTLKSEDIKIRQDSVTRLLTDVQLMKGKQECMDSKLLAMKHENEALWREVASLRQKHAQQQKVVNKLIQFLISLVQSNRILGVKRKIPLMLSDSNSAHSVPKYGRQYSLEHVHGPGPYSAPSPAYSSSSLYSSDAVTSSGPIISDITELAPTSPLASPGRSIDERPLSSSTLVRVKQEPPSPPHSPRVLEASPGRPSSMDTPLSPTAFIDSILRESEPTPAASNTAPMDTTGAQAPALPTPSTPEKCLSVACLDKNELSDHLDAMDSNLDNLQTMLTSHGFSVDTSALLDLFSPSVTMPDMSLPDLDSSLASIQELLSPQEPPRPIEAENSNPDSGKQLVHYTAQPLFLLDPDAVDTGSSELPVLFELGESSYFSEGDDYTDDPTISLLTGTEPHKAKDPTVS

[20] = molecular target: T5, Replicative DNA helicase DnaB (Mycobacterium tuberculosis, UniProt P9WMR3); assay: DnaB intein splicing inhibitors, dose response, biochemical, cell-free fluorescence (AID 449749); assay type: functional
T5 sequence (P9WMR3 whole entry): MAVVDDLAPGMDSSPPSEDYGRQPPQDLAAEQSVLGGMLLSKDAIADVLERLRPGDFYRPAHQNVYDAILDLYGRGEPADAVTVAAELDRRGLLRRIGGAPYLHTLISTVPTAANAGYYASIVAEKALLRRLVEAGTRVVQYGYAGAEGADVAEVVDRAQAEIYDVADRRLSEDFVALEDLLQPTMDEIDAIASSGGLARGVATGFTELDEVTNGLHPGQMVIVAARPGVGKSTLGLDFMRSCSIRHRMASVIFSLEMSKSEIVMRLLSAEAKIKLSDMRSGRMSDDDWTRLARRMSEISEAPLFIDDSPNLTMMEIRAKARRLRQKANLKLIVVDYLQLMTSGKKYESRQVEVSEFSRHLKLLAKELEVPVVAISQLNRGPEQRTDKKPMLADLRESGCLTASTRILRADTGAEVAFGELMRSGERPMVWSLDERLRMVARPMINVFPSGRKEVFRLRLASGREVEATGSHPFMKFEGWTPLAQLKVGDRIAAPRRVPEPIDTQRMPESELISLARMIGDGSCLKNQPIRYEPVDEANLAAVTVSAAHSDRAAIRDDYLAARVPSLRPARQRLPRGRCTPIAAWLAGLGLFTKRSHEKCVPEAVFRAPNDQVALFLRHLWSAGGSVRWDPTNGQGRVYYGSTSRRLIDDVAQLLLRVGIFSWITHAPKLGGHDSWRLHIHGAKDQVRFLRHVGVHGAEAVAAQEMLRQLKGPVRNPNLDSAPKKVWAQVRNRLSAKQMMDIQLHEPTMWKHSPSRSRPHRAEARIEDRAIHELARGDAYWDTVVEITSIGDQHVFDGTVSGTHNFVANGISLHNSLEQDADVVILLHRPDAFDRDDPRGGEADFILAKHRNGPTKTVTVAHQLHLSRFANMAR

[21] = molecular target: T6, Protein RecA (Mycobacterium tuberculosis, UniProt P9WHJ3); assay: Fluorescence Cell-Free Homogeneous Dose Retest to Identify Inhibitors of RecA-Intein Splicing Activity. [Related pubchem assays (depositor defined):AID2097, AID2223, AID489010, AID492950]; assay type: functional
T6 sequence (P9WHJ3 whole entry): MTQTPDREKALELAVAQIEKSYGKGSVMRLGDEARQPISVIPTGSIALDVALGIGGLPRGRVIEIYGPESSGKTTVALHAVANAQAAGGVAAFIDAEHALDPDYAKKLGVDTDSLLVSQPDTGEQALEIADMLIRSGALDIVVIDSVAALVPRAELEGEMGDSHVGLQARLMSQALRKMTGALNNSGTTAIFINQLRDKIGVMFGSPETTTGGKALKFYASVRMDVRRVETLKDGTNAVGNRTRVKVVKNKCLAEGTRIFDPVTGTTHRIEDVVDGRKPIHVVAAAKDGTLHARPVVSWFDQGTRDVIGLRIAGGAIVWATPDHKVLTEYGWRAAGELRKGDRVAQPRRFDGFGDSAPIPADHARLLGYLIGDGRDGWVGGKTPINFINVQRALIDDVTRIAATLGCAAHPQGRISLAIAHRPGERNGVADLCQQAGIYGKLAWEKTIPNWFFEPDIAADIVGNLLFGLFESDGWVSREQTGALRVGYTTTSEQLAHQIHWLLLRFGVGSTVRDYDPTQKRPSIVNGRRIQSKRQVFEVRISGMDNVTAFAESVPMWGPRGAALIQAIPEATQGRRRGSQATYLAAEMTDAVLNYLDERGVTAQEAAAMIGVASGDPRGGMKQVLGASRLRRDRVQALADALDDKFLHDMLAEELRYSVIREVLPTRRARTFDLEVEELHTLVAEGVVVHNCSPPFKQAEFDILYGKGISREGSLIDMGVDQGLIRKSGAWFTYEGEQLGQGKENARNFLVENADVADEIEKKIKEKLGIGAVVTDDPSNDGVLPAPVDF

Sequence of Genome polyprotein (P29990 2492-3391 limits assumed): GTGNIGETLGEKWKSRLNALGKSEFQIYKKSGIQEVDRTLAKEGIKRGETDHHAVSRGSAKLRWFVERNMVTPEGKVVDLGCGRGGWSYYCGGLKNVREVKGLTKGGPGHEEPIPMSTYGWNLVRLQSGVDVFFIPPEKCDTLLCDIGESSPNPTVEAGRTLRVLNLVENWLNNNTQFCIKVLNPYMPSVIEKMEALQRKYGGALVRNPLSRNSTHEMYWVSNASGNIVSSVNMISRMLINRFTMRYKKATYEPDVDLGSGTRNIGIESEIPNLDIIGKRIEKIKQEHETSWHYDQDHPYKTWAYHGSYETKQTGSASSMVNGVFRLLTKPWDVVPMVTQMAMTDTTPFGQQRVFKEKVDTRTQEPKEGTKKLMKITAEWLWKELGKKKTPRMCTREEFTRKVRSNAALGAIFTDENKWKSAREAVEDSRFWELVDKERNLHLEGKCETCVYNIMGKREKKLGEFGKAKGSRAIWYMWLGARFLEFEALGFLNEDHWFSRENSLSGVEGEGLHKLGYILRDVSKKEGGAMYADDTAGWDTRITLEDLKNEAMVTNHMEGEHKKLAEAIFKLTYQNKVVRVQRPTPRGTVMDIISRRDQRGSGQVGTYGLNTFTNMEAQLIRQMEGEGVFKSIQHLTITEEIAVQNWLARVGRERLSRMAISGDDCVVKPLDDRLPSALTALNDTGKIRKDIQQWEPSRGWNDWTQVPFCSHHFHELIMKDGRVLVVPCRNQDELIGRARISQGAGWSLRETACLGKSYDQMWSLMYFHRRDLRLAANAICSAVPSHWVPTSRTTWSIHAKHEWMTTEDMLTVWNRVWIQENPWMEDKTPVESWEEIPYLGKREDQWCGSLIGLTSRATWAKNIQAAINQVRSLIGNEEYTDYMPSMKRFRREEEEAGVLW
Sequence of Glucose-6-phosphate 1-dehydrogenase (P11413 whole entry): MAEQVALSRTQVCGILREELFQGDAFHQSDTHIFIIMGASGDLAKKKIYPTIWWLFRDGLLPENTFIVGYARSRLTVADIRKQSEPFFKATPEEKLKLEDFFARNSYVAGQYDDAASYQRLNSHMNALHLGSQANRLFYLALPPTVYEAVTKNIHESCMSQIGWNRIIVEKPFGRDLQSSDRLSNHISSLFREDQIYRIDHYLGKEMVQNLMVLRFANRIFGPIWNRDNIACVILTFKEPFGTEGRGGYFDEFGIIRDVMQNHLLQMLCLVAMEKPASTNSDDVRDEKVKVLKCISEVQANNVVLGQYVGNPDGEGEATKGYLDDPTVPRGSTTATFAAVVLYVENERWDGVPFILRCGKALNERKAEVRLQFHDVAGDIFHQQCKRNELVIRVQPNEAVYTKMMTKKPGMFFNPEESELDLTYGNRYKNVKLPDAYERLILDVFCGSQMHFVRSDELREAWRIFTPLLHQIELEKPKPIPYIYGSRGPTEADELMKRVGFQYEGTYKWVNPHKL
Sequence of Cytochrome P450 2D6 (P10635 whole entry): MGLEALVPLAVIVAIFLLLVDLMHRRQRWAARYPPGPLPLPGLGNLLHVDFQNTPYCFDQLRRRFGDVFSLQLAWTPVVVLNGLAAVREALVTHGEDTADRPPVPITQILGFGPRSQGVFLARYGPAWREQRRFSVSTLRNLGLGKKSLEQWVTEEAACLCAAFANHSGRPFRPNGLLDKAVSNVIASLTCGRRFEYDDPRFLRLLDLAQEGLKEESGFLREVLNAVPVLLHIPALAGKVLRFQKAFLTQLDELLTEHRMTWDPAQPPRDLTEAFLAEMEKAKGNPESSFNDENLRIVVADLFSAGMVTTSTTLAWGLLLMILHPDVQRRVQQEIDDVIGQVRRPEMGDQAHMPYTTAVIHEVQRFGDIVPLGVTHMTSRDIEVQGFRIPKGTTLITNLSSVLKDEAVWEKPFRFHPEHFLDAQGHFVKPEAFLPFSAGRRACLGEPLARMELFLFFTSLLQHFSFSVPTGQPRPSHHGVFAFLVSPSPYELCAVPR
Sequence of Cytochrome P450 2C9 (P11712 whole entry): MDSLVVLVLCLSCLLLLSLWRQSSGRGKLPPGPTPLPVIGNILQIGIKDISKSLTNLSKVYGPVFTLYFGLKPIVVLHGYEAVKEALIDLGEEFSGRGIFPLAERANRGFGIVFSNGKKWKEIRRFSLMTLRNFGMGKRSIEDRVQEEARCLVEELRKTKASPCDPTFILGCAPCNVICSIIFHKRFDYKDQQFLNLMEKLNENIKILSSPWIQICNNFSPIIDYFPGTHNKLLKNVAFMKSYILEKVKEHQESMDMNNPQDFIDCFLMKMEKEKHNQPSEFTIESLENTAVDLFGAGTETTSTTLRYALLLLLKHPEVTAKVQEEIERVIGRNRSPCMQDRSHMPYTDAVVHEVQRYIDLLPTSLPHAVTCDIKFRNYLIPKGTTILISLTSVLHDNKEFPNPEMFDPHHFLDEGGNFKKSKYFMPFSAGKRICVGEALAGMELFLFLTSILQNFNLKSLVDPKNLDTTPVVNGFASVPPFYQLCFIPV
Sequence of DNA (cytosine-5)-methyltransferase 1 (P26358 whole entry): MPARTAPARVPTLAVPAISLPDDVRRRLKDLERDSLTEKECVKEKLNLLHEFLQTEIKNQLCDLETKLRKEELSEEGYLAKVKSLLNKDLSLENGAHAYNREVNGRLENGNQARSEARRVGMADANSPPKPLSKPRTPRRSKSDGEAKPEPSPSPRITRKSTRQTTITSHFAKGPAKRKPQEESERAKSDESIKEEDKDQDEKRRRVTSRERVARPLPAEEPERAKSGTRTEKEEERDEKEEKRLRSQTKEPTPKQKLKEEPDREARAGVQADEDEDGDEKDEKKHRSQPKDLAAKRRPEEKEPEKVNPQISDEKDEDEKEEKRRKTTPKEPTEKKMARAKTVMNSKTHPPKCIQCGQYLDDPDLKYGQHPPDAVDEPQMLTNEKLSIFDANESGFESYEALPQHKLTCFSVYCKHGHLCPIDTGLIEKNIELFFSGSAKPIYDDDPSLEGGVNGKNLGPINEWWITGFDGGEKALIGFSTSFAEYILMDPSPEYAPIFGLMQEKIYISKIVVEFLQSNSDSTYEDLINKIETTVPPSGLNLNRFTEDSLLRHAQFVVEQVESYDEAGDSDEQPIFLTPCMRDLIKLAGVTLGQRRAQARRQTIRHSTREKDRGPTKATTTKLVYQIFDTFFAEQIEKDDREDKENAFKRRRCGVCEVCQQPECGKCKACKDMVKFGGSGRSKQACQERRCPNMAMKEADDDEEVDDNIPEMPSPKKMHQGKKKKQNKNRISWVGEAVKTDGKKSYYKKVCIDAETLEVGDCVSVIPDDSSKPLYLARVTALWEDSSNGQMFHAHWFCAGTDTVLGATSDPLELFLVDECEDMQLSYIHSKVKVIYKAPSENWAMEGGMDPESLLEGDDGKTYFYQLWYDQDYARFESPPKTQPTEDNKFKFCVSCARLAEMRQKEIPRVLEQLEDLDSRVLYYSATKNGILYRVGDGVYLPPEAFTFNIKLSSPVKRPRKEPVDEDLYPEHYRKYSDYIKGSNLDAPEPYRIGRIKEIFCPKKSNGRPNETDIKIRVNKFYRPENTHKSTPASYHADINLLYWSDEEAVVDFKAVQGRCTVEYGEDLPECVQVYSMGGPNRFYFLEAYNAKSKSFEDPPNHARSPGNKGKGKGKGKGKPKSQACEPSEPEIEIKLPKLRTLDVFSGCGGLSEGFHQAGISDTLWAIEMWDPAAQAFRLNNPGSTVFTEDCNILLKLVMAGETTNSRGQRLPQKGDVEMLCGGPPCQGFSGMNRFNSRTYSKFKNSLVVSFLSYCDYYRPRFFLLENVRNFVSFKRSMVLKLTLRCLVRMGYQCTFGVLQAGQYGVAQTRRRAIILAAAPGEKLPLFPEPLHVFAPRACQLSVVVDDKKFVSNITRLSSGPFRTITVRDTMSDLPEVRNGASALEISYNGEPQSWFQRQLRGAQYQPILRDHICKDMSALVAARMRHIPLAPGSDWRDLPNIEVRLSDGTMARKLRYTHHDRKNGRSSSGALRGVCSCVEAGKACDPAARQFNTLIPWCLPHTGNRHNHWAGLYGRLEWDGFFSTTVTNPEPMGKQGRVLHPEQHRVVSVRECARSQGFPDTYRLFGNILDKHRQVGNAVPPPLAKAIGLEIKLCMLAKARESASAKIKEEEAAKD
Sequence of Induced myeloid leukemia cell differentiation protein Mcl-1 (Q07820 whole entry): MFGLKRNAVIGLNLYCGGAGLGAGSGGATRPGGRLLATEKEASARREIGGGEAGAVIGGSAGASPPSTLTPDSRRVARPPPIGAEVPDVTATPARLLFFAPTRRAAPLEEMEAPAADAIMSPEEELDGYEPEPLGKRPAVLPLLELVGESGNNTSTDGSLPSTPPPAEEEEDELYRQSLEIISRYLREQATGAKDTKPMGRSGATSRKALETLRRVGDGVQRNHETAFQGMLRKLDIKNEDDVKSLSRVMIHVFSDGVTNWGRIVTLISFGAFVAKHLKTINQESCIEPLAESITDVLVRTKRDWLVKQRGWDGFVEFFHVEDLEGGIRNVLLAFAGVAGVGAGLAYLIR

Cc1ccc2[nH]c(SCC(=O)NC3CCCc4ccccc43)nc2c1 (stereo not given)
IC50 [1]: > 80 µM (inactive)

CC1(C)CC(=O)C(=Cc2cn(CCC#N)nc2-c2ccc(F)cc2)C(=O)C1
IC50 [2]: 52.8 µM (active)

O=C(O)CN1C(=O)/C(=C\c2cccc(OCc3ccccc3F)c2)SC1=S
IC50 [2]: 38.2 µM (active)

O=[N+]([O-])c1ccc(N2CCCC2)cc1N1CCCC1
AC50 [3]: > 20 µM (inactive)
AC50 [4]: inconclusive

O=C(CCN1C(=O)S/C(=C\c2ccccc2)C1=O)Nc1ccc(S(=O)(=O)Nc2nccs2)cc1
IC50 [5]: 7.24 µM (active)
IC50 [2]: > 100 µM (active)
AC50 [6]: 6.31 µM (inconclusive)
AC50 [7]: 31.6 µM (inconclusive)

O=CC(O)C1OC(=O)C(O)C1O (stereo not given)
IC50 [8]: 4.05 µM (active)
IC50 [9]: 14.4 µM (active)

CN(C)c1cccc2c1c(NC(=O)c1ccc(Cl)cc1)nn2C
EC50 [10]: > 120 µM (not active)
EC50 [11]: > 120 µM (not active)
EC50 [12]: 24.2 µM (active)
IC50 [1]: > 80 µM (inactive)

O=C(COC(=O)c1ccc2c(c1[N+](=O)[O-])C(=O)c1ccccc1C2=O)NC1CC1
EC50 [13]: > 150 µM (not active)
EC50 [14]: > 150 µM (not active)
EC50 [15]: 4.65 µM (active)
EC50 [16]: 9.54 µM (active)
EC50 [17]: > 150 µM (not active)
EC50 [18]: > 150 µM (not active)
IC50 [1]: > 80 µM (inactive)
EC50 [19]: 17 µM (active)
AC50 [20]: 3.81 µM (active)
EC50 [21]: 0.238 µM (active)
